According to publication PMC8819286 (Cancer Science, 2021):
Read-outs that look alike come from different tables or passages of the source. Blank lines part the entries; values can stand above or below the compound they belong to.

Legend:
[1] = tested on: EGFR^19del/T790M/C797S–triple‐mutant cells; conditions: cited from earlier work
[2] = tested on: BaF3‐EGFR^19del/T790M/C797S cells; assay: Proliferation assay; type: cell-based; conditions: 72 h, read-out: IC50, antiproliferative, BaF3‐EGFR^19del/T790M/C797S
[3] = tested on: BaF3‐EGFR^19del/T790M cells; assay: Proliferation assay; type: cell-based; conditions: 72 h, read-out: IC50, antiproliferative, BaF3‐EGFR^19del/T790M
PC‐9 (EGFR^19del) cells = assay: Proliferation assay; type: cell-based; conditions: Homo sapiens, PC-9, 72 h, read-out: IC50, antiproliferative, PC‐9 cells
[4] = tested on: PC‐9‐OR cells (EGFR^19del/T790M/C797S); assay: Proliferation assay; type: cell-based; conditions: PC9-OR, 72 h, read-out: IC50, antiproliferative, PC‐9‐OR cells
[5] = tested on: BaF3‐EGFR^19del/T790M/C797S cells; assay: Apoptosis, Annexin V‐FITC/PI flow cytometry; type: cell-based; conditions: concentrations between 30 nmol/L and 300 nmol/L, 48 h
PC‐9‐OR cells = assay: Apoptosis, Annexin V‐FITC/PI flow cytometry; type: cell-based; conditions: concentrations between 30 nmol/L and 300 nmol/L, 48 h
EGFR^T790M patients = conditions: cited from earlier work

Structure (SMILES): COc1cc(N2CCC(N3CCN(C)CC3)CC2)ccc1Nc1ncc(Cl)c(Nc2ccccc2P(C)(C)=O)n1 [Brigatinib]
- effectiveness against EGFR^19del/T790M/C797S–triple‐mutant cells ([1]; in vitro and in vivo): effective

Structure (SMILES): O=C(Nc1nccs1)C(c1cc(F)ccc1O)N1Cc2ccccc2C1=O (stereo not shown) [EAI045]
- effectiveness against EGFR^19del/T790M/C797S–triple‐mutant cells [1]: not effective

Structure (SMILES): O=C(Nc1nccs1)C(c1cc(F)ccc1O)N1Cc2ccc(-c3ccc(N4CCNCC4)cc3)cc2C1=O (stereo not shown) [JBJ‐04‐125‐02]
- effectiveness against EGFR^19del/T790M/C797S–triple‐mutant cells [1]: not effective

- IC50 [2]: 3380 nM
- IC50 [3]: 40 nM
Structure (SMILES): C=CC(=O)Nc1cc(Nc2nccc(-c3cn(C)c4ccccc34)n2)c(OC)cc1N(C)CCN(C)C [Osimertinib]
- IC50 (PC‐9 (EGFR^19del) cells): 80 nM
- IC50 [4]: 4850 nM
- apoptosis (in words) [5]: hardly caused any significant apoptosis
- apoptosis (in words) (PC‐9‐OR cells): hardly caused any significant apoptosis
- response rate (EGFR^T790M patients): 61%
